pEC50, pKi: −log10 of the molar value. Read-outs that look alike come from different tables or passages of the source.
Legend:
human A1 AR = biological target: T1, human A1 AR (Homo sapiens, UniProt P30542); assay: Radioligand competition binding with 125I-ABA, membranes of CHO K1 cells stably expressing the receptor; settings: Ki derived from IC50, class symbols
T1 construct: expressed in transfected cells; membranes
T1 sequence (P30542 1-326): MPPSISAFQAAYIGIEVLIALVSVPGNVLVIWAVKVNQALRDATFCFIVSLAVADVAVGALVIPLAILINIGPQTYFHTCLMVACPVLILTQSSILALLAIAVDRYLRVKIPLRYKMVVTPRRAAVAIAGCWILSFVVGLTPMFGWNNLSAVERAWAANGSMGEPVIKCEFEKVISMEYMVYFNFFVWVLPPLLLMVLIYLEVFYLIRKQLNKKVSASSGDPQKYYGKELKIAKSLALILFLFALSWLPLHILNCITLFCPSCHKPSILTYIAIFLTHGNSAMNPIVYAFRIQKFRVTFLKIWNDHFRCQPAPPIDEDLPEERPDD

[1] = biological target: T2, recombinant human A2A receptors (Homo sapiens, UniProt P29274); assay: Radioligand competition binding with 125I-APE or 125I-ZM241385, Sf9 cell membranes; settings: 125I-APE or 125I-ZM241385, Sf9 membranes; class symbols
T2 construct: expressed in transfected cells; host or cells: Sf9 insect cells infected with virus; membranes
Method in brief: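 Membranes (5 μg for A2A; 25 μg for A1) incubated with radioligand at room temperature, 3 h for agonists or 2 h for antagonists, in HE buffer with 1 U/mL adenosine deaminase and 5 mM MgCl2, ± 50 μM GTPγS. Assays ended by filtration; nonspecific binding defined with 50 μM NECA.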

human A3 AR = biological target: T3, human A3 AR (Homo sapiens, UniProt P0DMS8); assay: Radioligand competition binding with 125I-ABA, membranes of HEK 293 cells stably expressing the receptor; settings: Ki derived from IC50, class symbols
T3 construct: expressed in transfected cells; membranes
T3 sequence (P0DMS8 1-318): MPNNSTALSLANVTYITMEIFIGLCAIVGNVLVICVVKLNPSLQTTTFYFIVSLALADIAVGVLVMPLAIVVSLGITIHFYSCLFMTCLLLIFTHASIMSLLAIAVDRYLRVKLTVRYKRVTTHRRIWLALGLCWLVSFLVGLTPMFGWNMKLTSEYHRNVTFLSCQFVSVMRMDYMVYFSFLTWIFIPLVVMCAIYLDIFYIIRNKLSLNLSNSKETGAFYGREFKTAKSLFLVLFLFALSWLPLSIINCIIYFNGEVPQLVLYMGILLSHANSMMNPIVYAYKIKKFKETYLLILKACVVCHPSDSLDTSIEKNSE
Method in brief: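 Triplicate binding with 25 μg membrane protein and 0.5-1 nM agonist radioligand in HE buffer with 1 U/mL adenosine deaminase and 5 mM MgCl2, ±50 μM GTPγS, 3 h at room temperature, then filtration. Nonspecific binding with 50 μM NECA; Ki from IC50 corrected for radioligand and competitor depletion.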

[2] = system: Purified human neutrophils; assay: Luminol enhanced chemiluminescence (neutrophil oxidative activity), fMLP stimulated; assay type: cell-based; settings: read-out: Functional

T2 sequence (P29274 whole entry): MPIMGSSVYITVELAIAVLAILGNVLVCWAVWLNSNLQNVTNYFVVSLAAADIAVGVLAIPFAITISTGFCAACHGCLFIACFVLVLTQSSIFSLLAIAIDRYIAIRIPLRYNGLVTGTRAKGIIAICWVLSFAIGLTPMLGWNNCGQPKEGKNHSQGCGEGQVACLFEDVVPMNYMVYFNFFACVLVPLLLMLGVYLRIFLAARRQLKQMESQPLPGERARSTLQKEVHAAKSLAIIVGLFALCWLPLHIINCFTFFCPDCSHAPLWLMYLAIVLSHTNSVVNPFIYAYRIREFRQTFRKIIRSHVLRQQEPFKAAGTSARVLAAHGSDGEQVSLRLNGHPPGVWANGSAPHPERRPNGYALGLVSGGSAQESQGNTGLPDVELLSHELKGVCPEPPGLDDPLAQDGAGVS

Compound	pKi (human A1 AR)	pKi [1]	pKi (human A3 AR)	pEC50 ([2]; Homo sapiens, Neutrophil)	pEC50 ([2]; EC50 of peak chemiluminescence, human PMN, rolipram 100 nM, fMLP, three donors, class symbols)
Nc1nc(C#CCC2CCN(C(=O)Oc3cccc([N+](=O)[O-])c3)CC2)nc2c1ncn2[C@@H]1O[C@H](C(=O)NC2CC2)C(O)[C@@H]1O (stereo partly drawn) [Compound 56, N-Cyclopropyl 2-{3-[1-(3-nitrophenoxycarbonyl)-4-piperidinyl]-1-propyn-1-yl}adenosine-5′-uronamide]	> 7.00	> 9.00	< 7.00	> 9.00	
Nc1nc(C#CCC2CCN(C(=O)Oc3ccc(Br)cc3Br)CC2)nc2c1ncn2[C@@H]1O[C@H](C(=O)NC2CC2)C(O)[C@@H]1O (stereo partly drawn) [Compound 57, N-Cyclopropyl 2-{3-[1-(2,4-bromophenoxycarbonyl)-4-piperidinyl]-1-propyn-1-yl}adenosine-5′-uronamide]	> 7.00	> 9.00	> 7.00	> 8.00	
N-Cyclopropyl 2-{3-[1-((4-amino)benzyloxycarbanoyl)-4-piperidinyl]propyn-1-yl}adenosine-5′-uronamide [Compound 48]	< 7.00	> 8.00	< 7.00		> 8.00

Source: patent publication US7888329B2, “Substituted aryl piperidinylalkynyladenosines as A2AR agonists” (PGxHealth, LLC, priority 2006, dated 2011)
